The values below come from PubChem BioAssay AID330 (DTP/NCI, 2004).

This assay concerns P388 leukemia ip, CD2F1 mice, survival T/C. The assay is described as follows: NCI In Vivo Anticancer Drug Screen. Data for tumor model P388 Leukemia (intraperitoneal) in CD2F1 (CDF1) mice. The note with it: endpoint: median survival time, higher = longer survival. A digest of the protocol: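 Mice carrying the transplanted tumor received test compound or vehicle. Survival was recorded in each group, and the value is the treated-group measurement divided by that of the vehicle-treated control group.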

Setting [1] is: dose: 60.0 mg/kg/injection, schedule: Q01DX005 (ip), vehicle: saline with Tween-80.
Where [2] appears, read: dose: 120.0 mg/kg/injection, schedule: Q01DX005 (ip), vehicle: saline with Tween-80.
The mark [3] stands for this setting: dose: 240.0 mg/kg/injection, schedule: Q01DX005 (ip), vehicle: saline with Tween-80.
Where [4] appears, read: dose: 50.0 mg/kg/injection, schedule: Q01DX005 (ip), vehicle: saline with Tween-80.
Setting [5] is: dose: 100.0 mg/kg/injection, schedule: Q01DX005 (ip), vehicle: saline with Tween-80.
Setting [6] is: dose: 200.0 mg/kg/injection, schedule: Q01DX005 (ip), vehicle: saline with Tween-80.

Values joined by “and” are separate entries in the source; they are usually repeats but may differ in a detail not shown here. Equal entries are not always repeated. Inconclusive results and toxic doses are left out.

Turning to `CCC(CC)OCCN1CCN(CCCN2c3ccccc3Sc3ccc(C(F)(F)F)cc32)CC1`, the T/C is, setting by setting: (dose: 0.75 mg/kg/injection, schedule: Q01DX009 (ip), vehicle: saline with Tween-80) 110 % of control; (dose: 1.5 mg/kg/injection, schedule: Q01DX009 (ip), vehicle: saline with Tween-80) 94 % of control; (dose: 2.5 mg/kg/injection, schedule: Q04DX003 (ip), vehicle: saline) 110 % of control and 93 % of control; (dose: 3.0 mg/kg/injection, schedule: Q01DX009 (ip), vehicle: saline with Tween-80) 99 % of control; (dose: 5.0 mg/kg/injection, schedule: Q04DX003 (ip), vehicle: saline) 101 % of control and 97 % of control; (dose: 6.0 mg/kg/injection, schedule: Q01DX009 (ip), vehicle: saline with Tween-80) 100 % of control. For the same compound, the T/C was 99 % of control and 122 % of control (dose: 10.0 mg/kg/injection, schedule: Q04DX003 (ip), vehicle: saline with Tween-80); 109 % of control and 96 % of control (dose: 10.0 mg/kg/injection, schedule: Q04DX003 (ip), vehicle: saline); 110 % of control (dose: 12.0 mg/kg/injection, schedule: Q01DX009 (ip), vehicle: saline with Tween-80); 109 % of control and 119 % of control (dose: 20.0 mg/kg/injection, schedule: Q04DX003 (ip), vehicle: saline with Tween-80); 113 % of control and 98 % of control (dose: 20.0 mg/kg/injection, schedule: Q04DX003 (ip), vehicle: saline).
As for `CN=NN(C)C(=O)NC`, the T/C (dose: 12.5 mg/kg/injection, schedule: Q01DX005 (ip), vehicle: saline) was 102 % of control and the T/C (dose: 25.0 mg/kg/injection, schedule: Q01DX005 (ip), vehicle: saline) is 117 % of control.
Take `CC(=O)N1CCc2ccccc2C1C1c2ccccc2CCN1C(C)=O` (stereo not given): the T/C (dose: 100.0 mg/kg/injection, schedule: Q04DX003 (ip), vehicle: Klucel (hydroxypropylcellulose) (HPC)) was 94 % of control; the T/C (dose: 200.0 mg/kg/injection, schedule: Q04DX003 (ip), vehicle: Klucel (hydroxypropylcellulose) (HPC)) is 94 % of control; the T/C (dose: 400.0 mg/kg/injection, schedule: Q04DX003 (ip), vehicle: Klucel (hydroxypropylcellulose) (HPC)) was 92 % of control.
For the compound `Cc1ccc(NC(=O)C2C(=O)N(c3ccc(C)c(C)c3)C(=O)C2N=N)cc1C` (stereo not given), the T/C runs as follows: (dose: 100.0 mg/kg/injection, schedule: Q01DX001 (ip), vehicle: saline with Tween-80) 100 % of control; (dose: 200.0 mg/kg/injection, schedule: Q01DX001 (ip), vehicle: saline with Tween-80) 101 % of control; (dose: 400.0 mg/kg/injection, schedule: Q01DX001 (ip), vehicle: saline with Tween-80) 91 % of control.
In the case of `C1CCC2[N-]CCCC2C1.C1CCC2[N-]CCCC2C1.O=[N+]([O-])O.O=[N+]([O-])O.[Cu+2]` (stereo not given), the T/C (dose: 7.5 mg/kg/injection, schedule: Q01DX005 (ip), vehicle: saline with Tween-80) was 99 % of control and the T/C (dose: 15.0 mg/kg/injection, schedule: Q01DX005 (ip), vehicle: saline with Tween-80) was 99 % of control.
As to `CC1(C)NC(=O)c2c(-c3ccccc3)c(-c3ccccc3)n(-c3ccccc3)c2N1`, the T/C runs as follows: (dose: 50.0 mg/kg/injection, schedule: Q01DX009 (ip), vehicle: suspension in saline) 96 % of control; (dose: 100.0 mg/kg/injection, schedule: Q01DX009 (ip), vehicle: suspension in saline) 98 % of control; (dose: 200.0 mg/kg/injection, schedule: Q01DX009 (ip), vehicle: suspension in saline) 101 % of control.
For the compound `c1cc2c(cc1CSCc1c(CSCc3ccc4c(c3)OCO4)c(CSCc3ccc4c(c3)OCO4)c(CSCc3ccc4c(c3)OCO4)c(CSCc3ccc4c(c3)OCO4)c1CSCc1ccc3c(c1)OCO3)OCO2`, the T/C was 100 % of control (dose: 50.0 mg/kg/injection, schedule: Q01DX009 (ip), vehicle: saline with Tween-80); 99 % of control (dose: 100.0 mg/kg/injection, schedule: Q01DX009 (ip), vehicle: saline with Tween-80); 97 % of control (dose: 200.0 mg/kg/injection, schedule: Q01DX009 (ip), vehicle: saline with Tween-80).
With `C=CC1(C)CCOC(=O)C1` (stereo not given), the T/C is 94 % of control under setting [1] and 97 % of control under setting [2].
`C[C@@](O)(/C=C/[C@H]1CC=CC(=O)O1)[C@@H](C[C@@H](O)\C=C/C=C\C=C\CO)OP(=O)(O)O`: the T/C (dose: 12.5 mg/kg/injection, schedule: Q01DX005 (ip), vehicle: other) was 150 % of control and 157 % of control; the T/C (dose: 25.0 mg/kg/injection, schedule: Q01DX005 (ip), vehicle: other) was 174 % of control.
In the case of `CCOC(=O)C1=C(C)NC(=O)NC1c1cccs1` (stereo not given), the T/C reads like this: (dose: 50.0 mg/kg/injection, schedule: Q01DX005 (ip), vehicle: Klucel (hydroxypropylcellulose) (HPC)) 98 % of control; (dose: 100.0 mg/kg/injection, schedule: Q01DX005 (ip), vehicle: Klucel (hydroxypropylcellulose) (HPC)) 96 % of control; (dose: 200.0 mg/kg/injection, schedule: Q01DX005 (ip), vehicle: Klucel (hydroxypropylcellulose) (HPC)) 97 % of control.
`O=S1(=O)O[C@H]2CCCC[C@H]2O1`: the T/C (dose: 1.75 mg/kg/injection, schedule: Q01DX009 (ip), vehicle: Klucel (hydroxypropylcellulose) (HPC)) is 100 % of control; the T/C (dose: 3.5 mg/kg/injection, schedule: Q01DX009 (ip), vehicle: Klucel (hydroxypropylcellulose) (HPC)) is 98 % of control; the T/C (dose: 7.0 mg/kg/injection, schedule: Q01DX009 (ip), vehicle: Klucel (hydroxypropylcellulose) (HPC)) is 101 % of control; the T/C (dose: 14.0 mg/kg/injection, schedule: Q01DX009 (ip), vehicle: Klucel (hydroxypropylcellulose) (HPC)) was 98 % of control.
With `O=C(COc1ccc(Cl)cc1)NN1CCCCCC1`, the T/C was 99 % of control (dose: 7.5 mg/kg/injection, schedule: Q01DX005 (ip), vehicle: Klucel (hydroxypropylcellulose) (HPC)) and 98 % of control (dose: 15.0 mg/kg/injection, schedule: Q01DX005 (ip), vehicle: Klucel (hydroxypropylcellulose) (HPC)).
On to `COC1(OC)C2(Cl)C(Cl)=C(Cl)C1(Cl)C1CCCCCC12` (stereo not given), for which the T/C runs as follows: under setting [1], 97 % of control; under setting [2], 97 % of control; under setting [3], 101 % of control.
Turning to `O=C1C=C[C@@H](COC(c2ccccc2)(c2ccccc2)c2ccccc2)O1`, the T/C is, setting by setting: (dose: 100.0 mg/kg/injection, schedule: Q04DX002 (ip), vehicle: saline with Tween-80) 92 % of control; (dose: 200.0 mg/kg/injection, schedule: Q04DX002 (ip), vehicle: saline with Tween-80) 86 % of control; (dose: 400.0 mg/kg/injection, schedule: Q04DX002 (ip), vehicle: saline with Tween-80) 89 % of control.
Turning to `COc1cc(/C=C/C(=O)NCCCCN)ccc1O`, the T/C under setting [1] was 105 % of control, the T/C under setting [2] was 101 % of control and the T/C under setting [3] was 95 % of control.
For the compound `Cc1c(Cl)cccc1Nc1ncccc1C(=O)OCC(O)CO` (stereo not given), the T/C by setting is: under setting [4], 96 % of control; under setting [5], 98 % of control; under setting [6], 95 % of control.
Take `Cc1cc(=Nc2ccc3c(c2)c(N)cc(C)[n+]3C)nc(N)n1C`: the T/C is, setting by setting: (dose: 6.25 mg/kg/injection, schedule: Q01DX005 (ip), vehicle: Klucel (hydroxypropylcellulose) (HPC)) 107 % of control; (dose: 12.5 mg/kg/injection, schedule: Q01DX005 (ip), vehicle: Klucel (hydroxypropylcellulose) (HPC)) 107 % of control; (dose: 25.0 mg/kg/injection, schedule: Q01DX005 (ip), vehicle: Klucel (hydroxypropylcellulose) (HPC)) 104 % of control.
Consider `COc1cccc2c1C(=O)c1c(O)c3c(c(O)c1C2=O)CC(O)(C1(C)OCCO1)CC3O` (stereo not given), for which the T/C is, setting by setting: (dose: 3.13 mg/kg/injection, schedule: Q04DX003 (ip), vehicle: distilled water + Tween-80) 99 % of control; (dose: 6.25 mg/kg/injection, schedule: Q04DX003 (ip), vehicle: distilled water + Tween-80) 99 % of control; (dose: 12.5 mg/kg/injection, schedule: Q04DX003 (ip), vehicle: distilled water + Tween-80) 99 % of control; (dose: 25.0 mg/kg/injection, schedule: Q04DX003 (ip), vehicle: distilled water + Tween-80) 96 % of control; (dose: 50.0 mg/kg/injection, schedule: Q04DX003 (ip), vehicle: distilled water + Tween-80) 98 % of control; (dose: 100.0 mg/kg/injection, schedule: Q04DX003 (ip), vehicle: distilled water + Tween-80) 98 % of control. Besides, the T/C runs as follows: (dose: 200.0 mg/kg/injection, schedule: Q04DX003 (ip), vehicle: distilled water + Tween-80) 106 % of control; (dose: 400.0 mg/kg/injection, schedule: Q04DX003 (ip), vehicle: distilled water + Tween-80) 106 % of control.
`CCC1SCC(=O)N1c1nncs1` (stereo not given): the T/C by setting is: (dose: 25.0 mg/kg/injection, schedule: Q01DX005 (ip), vehicle: saline with Tween-80) 104 % of control; under setting [4], 101 % of control and 102 % of control; under setting [5], 102 % of control and 97 % of control; under setting [6], 101 % of control.
Consider `O=C(CCCC(=O)Nc1cccc2[nH]c3ccccc3c(=O)c12)Nc1cccc2[nH]c3ccccc3c(=O)c12`, for which the T/C is, setting by setting: under setting [1], 100 % of control; under setting [2], 88 % of control; under setting [3], 100 % of control.
